Values quoted from earlier work in patent US12161617B2, “Methocarbamol compositions and related methods” (Exela Sterile Medicines LLC, priority 2014, dated 2024).

differences with respect to methocarbamol absorption (patients undergoing maintenance haemodialysis vs normal subjects): no significant differences
relative systemic availability in patients (renal dialysis patients relative to normal subjects): 113%
Compound: COc1ccccc1OCC(O)COC(N)=O (centres unmarked) [methocarbamol, 3-(2-methoxyphenoxy)-1,2-propanediol 1-carbamate]
